The source of these data is patent publication US20070043064A1, “7-Substituted 3-nitro-pyrazo[1,5-a] pyrimidines” (FERRER INTERNACIONAL S.A., priority 2003, published 2007).

The target in one data set is T1, α1-GABAA receptor (Rattus norvegicus, UniProt P62813).
T1 construct: the cerebellum (tissue that mostly contains α1-GABAA receptor); from tissue; host or cells: rat cerebellum membranes
In words: Ligand-binding assay, radiolabeled flumazenil competition, cerebellum membranes. The protocol: (§1) Ligand-Binding Assays. Determination of the Affinity of Test Compounds for α1- and α2-GABAA Receptors.
(§2) Male Sprague-Dawley rats weighing 200-250 g at the time of experiment were used. After decapitation of the animal, the cerebellum (tissue that mostly contains α1-GABAA receptor) and spinal cord (tissue that mostly contains α2-GABAA receptor) were removed. The membranes were prepared according to the method by J. Lameh et al. (Prog. Neuro-Psychopharmacol. Biol. Psychiatry, 24, 979-991, 2000). Once the tissues weighed, they were suspended in 50 mM Tris HCl buffer, pH 7.7, (1:40 v/v), homogenized and then centrifuged at 20000 g for 10 min at 7° C. The resulting pellet was resuspended under the same conditions and centrifuged again. The final pellet obtained was resuspended on a minimum volume and kept at −80° C. overnight. On the next day, the process was repeated until the final pellet was resuspended at a ratio of 1:10 (v/v).
(§3) The affinity of the compounds was determined by competitive tests using radiolabeled flumazenil as ligand. The methods described by S. Arbilla et al. (Eur. J. Pharmacol., 130, 257-263, 1986); and Y. Wu et al. (Eur. J. Pharmacol., 278, 125-132, 1995) were used. The membranes containing the study receptors, flumazenil (radiolabeling at a final concentration of 1 nM) and ascending concentrations of test compounds (in a total volume of 500 μl in […] [ph 7.4] Tris HCl buffer) were incubated. Simultaneously, the membranes were only incubated with the radiolabeled flumazenil (total binding, 100%) and in the presence of an elevated concentration of unradiolabeled flumazenil (non-specific binding, % estimate of radiolabeled ligand). The reactions started on adding the radiolabeled ligand followed by incubation for 60 minutes at 0° C. At the end of the incubation period, the tubes were filtered using a Brandel Mod. M-48R harvester and then washed three times with cold test buffer. The harvester was fitted with a GF/B filter that retained the membranes containing the receptors and the radiolabeled ligand which had been bound to the receptors. Then the filters were removed and left till dry. Once dried, the filters were cut, placed in vials with scintillation liquid and left under stirring overnight. The next day the filters were counted using a Packard Mod. Tricarb scintillation counter.
(§4) T: total binding, maximum amount bound to the radiolabeled ligand. N: Non-specific binding, amount of radiolabeled ligand bound in a non-specific way irrespective of the receptor used.
(§5) Every concentrations of compound were tested in duplicate and their mean values were used to determine the experimental values of % specific binding versus the concentration of compound. […] Inhibition constants (Ki) were calculated from the IC50 values according to Cheng-Prusoff's formula (Y. Cheng y W. H. Prusoff, Biochem. Pharmacol., 22(23), 3099-3108, 1973).

A further data set has as its system male CD1 mice. Put plainly: Predictive sedation-hypnosis test in mice (motor activity, crossings). It counts as in vivo. Particulars: single equimolecular intraperitoneal dose, crossings over 30 min after dosing (first 5 min discarded) versus control animals. Here is the method: In Vivo Determination of Predictive Sedative-Hypnotic Action.
The in vivo effects of these compounds were assessed by a predictive sedation-hypnosis test in mice (D. J. Sanger et al., Eur. J. Pharmacol., 313, 35-42, 1996; and G. Griebel et al., Psychopharmacology, 146, 205-213, 1999).
Groups of 5-8 male CD1 mice, weighing 22-26 g at the time of test, were used. The test compounds were administered in single equimolecular intraperitoneal doses, suspended in 0.25% agar with one drop of Tween in a volume of 10 ml/kg. Control animals received the vehicle alone. Using an Actisystem DAS16 (Panlab, S. L., Spain) the crossings (number of counts) were recorded for each mouse at 5-min intervals during a period of 30 minutes after dosing. The inhibition percentage of crossings of treated animals versus control animals (the first 5 min were discarded) was calculated.

For another data set, the target named is α2-GABAA receptor (Rattus norvegicus, UniProt P18508+P23576). Put plainly: Ligand-binding assay, radiolabeled flumazenil competition, spinal cord membranes. Particulars: for inhibition at 10 µM: compound at 10^−5M; for inhibition at 0.1 µM: compound at 10^−7M. The protocol:
as §1, §2, §3, §4, §5

Setting [1] is: read-out: Affinity for α1-GABAA receptor, Ki.

SMILES strings stand for the structures. Like-named read-outs stand apart in the source and are kept apart here.

On to `O=[N+]([O-])c1cnn2c(-c3cccc(C(F)(F)F)c3)ccnc12` [Example 8, 3-nitro-7-(3-trifluoromethyl-phenyl)-pyrazolo[1,5-a]pyrimidine], for which the melting point was in the range of 159 to 161 °C. Besides, the Ki on α1-GABAA receptor (setting [1]) was determined as 623 nM. Besides, in the data set on male CD1 mice, the “% Inhibition Motor Activity” value was 69.08%.
As to `O=[N+]([O-])c1cnn2c(-c3ccco3)ccnc12`, the melting point fell in the range of 235 to 237 °C.
As for `CC(=O)N(C)c1cccc(-c2ccnc3c([N+](=O)[O-])cnn23)c1` [Example 2, N-methyl-N-[3-(3-nitro-pyrazolo[1,5-a]pyrimidin-7-yl)-phenyl]-acetamide], on α1-GABAA receptor, the Ki stood at 96.8 nM. Moreover, the “% Inhibition Motor Activity” value in the data set on male CD1 mice is listed as 77.25%.
Compound `CCN(C(C)=O)c1cccc(-c2ccnc3c(C#N)cnn23)c1` [Zaleplon, zaleplon, reference compound] had an inhibition at 10 µM at α2-GABAA receptor of 78.4%. In addition, the “% Inhibition Motor Activity” value in the data set with male CD1 mice was 47.17%.
In the case of `CCCCN(c1cccc(-c2ccnc3c([N+](=O)[O-])cnn23)c1)S(C)(=O)=O`, the melting point fell in the range of 153 to 155 °C.
With `CCN(c1cccc(-c2ccnc3c([N+](=O)[O-])cnn23)c1)S(C)(=O)=O` [Example 15, N-ethyl-N-[3-(3-nitro-pyrazolo[1,5-a]pyrimidin-7-yl)-phenyl]-methanesulfonamide], the affinity at α1-GABAA receptor corresponds to a Ki of 11.1 nM.
The compound `CCCN(c1cccc(-c2ccnc3c([N+](=O)[O-])cnn23)c1)S(C)(=O)=O` [Example 25, N-[3-(3-nitro-pyrazolo[1,5-a]pyrimidin-7-yl)-phenyl]-N-(n-propyl)-methanesulfonamide] yielded a melting point of 165 to 167 °C. In addition, the Ki on α1-GABAA receptor amounted to 102 nM. Further, the “% Inhibition Motor Activity” value in the data set on male CD1 mice is on record as 61.06%.
`CCCN(c1cccc(-c2ccnc3c([N+](=O)[O-])cnn23)c1)S(=O)(=O)c1ccccc1`: the melting point lay within 154 to 156 °C.
The same measure, in the same setting: with `O=[N+]([O-])c1cnn2c(-c3ccccc3C(F)(F)F)ccnc12` the figure was 195 to 197 °C; with `O=[N+]([O-])c1cnn2c(-c3ccc(C(F)(F)F)cc3)ccnc12`, 191 to 193 °C; with `COc1ccc(S(=O)(=O)N(C)c2cccc(-c3ccnc4c([N+](=O)[O-])cnn34)c2)cc1`, 205 to 206 °C.
Still for that read-out and setting: the value for `O=C1CCCN1c1cccc(-c2ccnc3c([N+](=O)[O-])cnn23)c1` was 226 to 228 °C.
Same read-out and setting: with `O=[N+]([O-])c1cnn2c(-c3cccnc3)ccnc12` the figure was 302 to 303 °C.
As to `CCN(C(C)=O)c1cccc(-c2ccnc3c([N+](=O)[O-])cnn23)c1` [Example 1, N-ethyl-N-[3-(3-nitro-pyrazolo[1,5-a]pyrimidin-7-yl)-phenyl]-acetamide], the melting point lay within 176 to 178 °C. This compound gave an inhibition constant Ki on α1-GABAA receptor of 88.6 nM. The “% Inhibition Motor Activity” value in the data set with male CD1 mice is 77.25%.
In turn, `O=[N+]([O-])c1cnn2c(-c3ccncc3)ccnc12` returned a melting point of 241 to 244 °C.
With `C#CCN(c1cccc(-c2ccnc3c([N+](=O)[O-])cnn23)c1)S(=O)(=O)C(C)C` [Example 31, N-[3-(3-nitro-pyrazolo[1,5-a]pyrimidin-7-yl)-phenyl]-N-(n-prop-2-inyl)-propane-2-sulfonamide], at α1-GABAA receptor, the Ki worked out at 48.5 nM. At α2-GABAA receptor, this compound registered an inhibition at 10 µM of 81.3% and an inhibition at 0.1 µM of 4.2%. In the data set with male CD1 mice, the “% Inhibition Motor Activity” value is 94.31%.
Compound `CCCN(c1cccc(-c2ccnc3c([N+](=O)[O-])cnn23)c1)S(=O)(=O)c1ccc(OC)cc1` gave a melting point of 184 to 185 °C.
Turning to `CCCN(C(C)=O)c1cccc(-c2ccnc3c([N+](=O)[O-])cnn23)c1` [Example 3, N-[3-(3-nitro-pyrazolo[1,5-a]pyrimidin-7-yl)-phenyl]-N-(n-propyl)-acetamide], the Ki at α1-GABAA receptor (setting [1]) was determined as 110 nM. The “% Inhibition Motor Activity” value with male CD1 mice was 61.68%.
On to `CCCCN(c1cccc(-c2ccnc3c([N+](=O)[O-])cnn23)c1)S(=O)(=O)c1ccccc1`, for which the melting point was in the range of 159 to 160 °C.
In the case of `CCS(=O)(=O)N(C)c1cccc(-c2ccnc3c([N+](=O)[O-])cnn23)c1` [Example 32, N-[3-(3-nitro-pyrazolo[1,5-a]pyrimidin-7-yl)-phenyl]-N-methyl-ethanesulfonamide], the Ki on α1-GABAA receptor is 31 nM. At α2-GABAA receptor, this compound registered an inhibition at 10 µM of 89% and an inhibition at 0.1 µM of 21%. For the same compound, the “% Inhibition Motor Activity” value in the data set with male CD1 mice is listed as 91.57%.
The compound `CCN(c1cccc(-c2ccnc3c([N+](=O)[O-])cnn23)c1)S(=O)(=O)c1ccc(OC)cc1` had a melting point of 209 to 211 °C.
Take `CC(C)S(=O)(=O)N(C)c1cccc(-c2ccnc3c([N+](=O)[O-])cnn23)c1` [Example 35, N-[3-(3-nitro-pyrazolo[1,5-a]pyrimidin-7-yl)-phenyl]-N-methyl-propane-2-sulfonamide]: on α1-GABAA receptor, the Ki is 41.2 nM. Further, at α2-GABAA receptor, the inhibition at 10 µM is 91.5% and 0.1 µM produced 18.9% inhibition. Further, the “% Inhibition Motor Activity” value in the data set on male CD1 mice is 91.21%.
Regarding `C#CCN(c1cccc(-c2ccnc3c([N+](=O)[O-])cnn23)c1)S(C)(=O)=O` [Example 28, N-[3-(3-nitro-pyrazolo[1,5-a]pyrimidin-7-yl)-phenyl]-N-(prop-2-inyl)-methanesulfonamide], on α1-GABAA receptor, affinity was put at a Ki of 11.7 nM. On α2-GABAA receptor, this compound came in with an inhibition at 10 µM of 96.4% and an inhibition at 0.1 µM of 29%. The “% Inhibition Motor Activity” value in the data set on male CD1 mice is given as 94.19%.
`C#CCN(C(C)=O)c1cccc(-c2ccnc3c([N+](=O)[O-])cnn23)c1` [Example 5, N-[3-(3-nitro-pyrazolo[1,5-a]pyrimidin-7-yl)-phenyl]-N-(2-propynyl)-acetamide] had a Ki at α1-GABAA receptor of 38.6 nM. Moreover, in the data set on male CD1 mice, the “% Inhibition Motor Activity” value is 79.06%.
On α1-GABAA receptor, `CN(c1cccc(-c2ccnc3c([N+](=O)[O-])cnn23)c1)S(C)(=O)=O` [Example 18, N-methyl-N-[3-(3-nitro-pyrazolo[1,5-a]pyrimidin-7-yl)-phenyl]-methanesulfonamide] had a Ki of 28.3 nM. Besides, the “% Inhibition Motor Activity” value with male CD1 mice is given as 68.55%.
As for `O=[N+]([O-])c1cnn2c(-c3cccc(N4CCCS4(=O)=O)c3)ccnc12` [Example 34, 7-(3-(2-isothiazolidinyl-1,1-dioxide)-phenyl)-3-nitro-pyrazolo[1,5-a]pyrimidine], the Ki at α1-GABAA receptor (setting [1]) was found to be 165 nM. Moreover, at α2-GABAA receptor, the inhibition at 10 µM worked out at 86.9% and the inhibition at 0.1 µM amounted to 4.3%. Also, the “% Inhibition Motor Activity” value in the data set with male CD1 mice is given as 64.23%.
Compound `CCCCN(c1cccc(-c2ccnc3c([N+](=O)[O-])cnn23)c1)S(=O)(=O)c1ccc(OC)cc1` registered a melting point of 189 to 190 °C.
`O=[N+]([O-])c1cnn2c(-c3cccs3)ccnc12` gave a melting point of 235 to 237 °C.

Usually Ki stands for a measure of affinity in units of concentration, obtained from inhibition or displacement. As a reminder, the melting point is the temperature of the solid-liquid transition. In general, inhibition refers to the drop in the measured response relative to a control, in per cent.
